Measured values taken from ChEMBL document CHEMBL3272098, “Reactions of 2-acyloxyisobutyryl halides with nucleosides. 7. Synthesis and biological evaluation of some 2,2'-anhydro-1(3',5'-di-O-acyl-beta-D-arabinofuranosyl)cytosine hydrochlorides” (J Med Chem, 1976).
The source made the active and inactive calls. The rule behind the calls is not given here.

What was measured:
L1210 [1] = assay: Antitumor activity against mouse L1210 cells allografted in BDF1 mouse assessed as increase in life span at 50 mg/kg, ip administered 24 hrs post-implantation measured up to 30 days relative to control; assay type: functional; conditions: route intraperitoneal
Vaccinia virus = assay: Antiviral activity against Vaccinia virus IHD infected in African green monkey BGM cells after 6 days by plaque reduction assay; assay type: functional; conditions: Orthopoxvirus vaccinia, 144 h, read-out: ED50 (the source's name)
L1210 [2] = assay: Antitumor activity against mouse L1210 cells allografted in BDF1 mouse assessed as survival at 1000 mg/kg, ip administered 24 hrs post-implantation after 30 days; assay type: functional, organism-based; design: dose 1000 mg/kg
L1210 [3] = assay: Antitumor activity against mouse L1210 cells allografted in BDF1 mouse assessed as increase in life span at 1000 mg/kg, ip administered 24 hrs post-implantation measured up to 30 days relative to control; assay type: functional; conditions: route intraperitoneal
HeLa = assay: Cytotoxicity against human HeLa cells after 48 hrs by Coulter counting analysis; assay type: functional; conditions: read-out: ED50 (the source's name)
L1210 [4] = assay: Antitumor activity against mouse L1210 cells allografted in BDF1 mouse assessed as increase in life span at 200 mg/kg, ip administered 24 hrs post-implantation measured up to 30 days relative to control; assay type: functional; conditions: route intraperitoneal
L1210 [5] = assay: Antitumor activity against mouse L1210 cells allografted in BDF1 mouse assessed as survival at 50 mg/kg, ip administered 24 hrs post-implantation after 30 days; assay type: functional, organism-based; design: dose 50 mg/kg
L1210 [6] = assay: Antitumor activity against mouse L1210 cells allografted in po dosed BDF1 mouse administered 24 hrs post-implantation; assay type: functional, organism-based
L1210 [7] = assay: Antitumor activity against mouse L1210 cells allografted in BDF1 mouse assessed as survival at 200 mg/kg, ip administered 24 hrs post-implantation after 30 days; assay type: functional, organism-based; design: dose 200 mg/kg
Herpesviridae sp. = assay: Antiviral activity against Herpes simplex virus HF infected in African green monkey BGM cells after 6 days by plaque reduction assay; assay type: functional; conditions: 144 h, read-out: ED50 (the source's name)
BGM = assay: Antiviral activity against Poliovirus type 1 Mahoney infected in African green monkey BGM cells after 5 days by pulp disk diffusion assay; assay type: functional, cell-based; conditions: Human poliovirus 1 Mahoney
[8] = test system: unidentified influenza virus; assay: Antiviral activity against Influenza virus Ao/WNS infected in monkey LLC-MK2 cells after 5 days by pulp disk diffusion assay; assay type: functional, organism-based
Measles morbillivirus = assay: Antiviral activity against Measles virus infected in African green monkey BGM cells after 5 days by pulp disk diffusion assay; assay type: functional, organism-based
Mus musculus [9] = assay: Toxicity in BDF1 mouse allografted with mouse L1210 cells assessed as reduction in average life span at 1000 mg/kg, ip administered 24 hrs post-implantation measured up to 30 days relative to control; assay type: organism-based; design: dose 1000 mg/kg, route intraperitoneal; scale not given: the % may be the effect or the level left; conditions: in vivo
Mus musculus [10] = assay: Toxicity in BDF1 mouse allografted with mouse L1210 cells assessed as survival at 500 mg/kg, ip administered 24 hrs post-implantation after 30 days; assay type: organism-based; design: dose 500 mg/kg, route intraperitoneal; conditions: in vivo, 720 h
Mus musculus [11] = assay: Toxicity in BDF1 mouse allografted with mouse L1210 cells assessed as survival at 1000 mg/kg, ip administered 24 hrs post-implantation after 30 days; assay type: organism-based; design: dose 1000 mg/kg, route intraperitoneal; conditions: in vivo, 720 h
Mus musculus [12] = assay: Toxicity in BDF1 mouse allografted with mouse L1210 cells assessed as reduction in average life span at 500 mg/kg, ip administered 24 hrs post-implantation measured up to 30 days relative to control; assay type: organism-based; design: dose 500 mg/kg, route intraperitoneal; scale not given: the % may be the effect or the level left; conditions: in vivo
L1210 [13] = assay: Antitumor activity against mouse L1210 cells allografted in BDF1 mouse assessed as increase in life span at 500 mg/kg, ip administered 24 hrs post-implantation measured up to 30 days relative to control; assay type: functional; conditions: route intraperitoneal
L1210 [14] = assay: Antitumor activity against mouse L1210 cells allografted in BDF1 mouse assessed as survival at 500 mg/kg, ip administered 24 hrs post-implantation after 30 days; assay type: functional, organism-based; design: dose 500 mg/kg
Mus musculus [15] = assay: Toxicity in BDF1 mouse allografted with mouse L1210 cells assessed as reduction in average life span at 200 mg/kg, ip administered 24 hrs post-implantation measured up to 30 days relative to control; assay type: organism-based; design: dose 200 mg/kg, route intraperitoneal; scale not given: the % may be the effect or the level left; conditions: in vivo
Mus musculus [16] = assay: Toxicity in BDF1 mouse allografted with mouse L1210 cells assessed as survival at 200 mg/kg, ip administered 24 hrs post-implantation after 30 days; assay type: organism-based; design: dose 200 mg/kg, route intraperitoneal; conditions: in vivo, 720 h

SMILES | ILS at 50 mg/kg (L1210 [1]) [%] | EC50 (Vaccinia virus) [nM] | EC50 (HeLa) [µg/mL] | ILS at 200 mg/kg (L1210 [4]) [%] | Activity (L1210 [5]) | Activity (L1210 [6]) | Activity (L1210 [7]) | EC50 (Herpesviridae sp.) [nM] | Activity (BGM) | Activity [8] | Activity (Measles morbillivirus) | further results
CCCCCCCCCCCCCCCCCCCC(=O)OC[C@H]1O[C@@H]2[C@@H](Oc3nc(=N)ccn32)[C@@H]1OC(=O)CCCCCCCCCCCCCCCCCCC.Cl | 8 | > 30000 | 2.5 | 31 | inactive | inactive | inactive | > 30000 | inactive | inactive | inactive | Activity (L1210 [2]): inactive; ILS at 1000 mg/kg (L1210 [3]): 107%
CCCCCCCCCCCCCCCC(=O)OC[C@H]1O[C@@H]2[C@@H](Oc3nc(=N)ccn32)[C@@H]1OC(=O)CCCCCCCCCCCCCCC.Cl | – | 28000 | 4 | 231 | – | inactive | inactive | > 30000 | inactive | inactive | inactive | –
CCCCCCCCCCCCCC(=O)OC[C@H]1O[C@@H]2[C@@H](Oc3nc(=N)ccn32)[C@@H]1OC(=O)CCCCCCCCCCCCC.Cl | > 129 | 1750 | 0.48 | > 295 | – | inactive | – | 6050 | inactive | inactive | inactive | Activity (Mus musculus [9]): 18%; Activity (Mus musculus [10]): Toxic; Activity (Mus musculus [11]): Toxic; Activity (Mus musculus [12]): 20%
CCCCCCCC/C=C\CCCCCCCC(=O)OC[C@H]1O[C@@H]2[C@@H](Oc3nc(=N)ccn32)[C@@H]1OC(=O)CCCCCCC/C=C\CCCCCCCC.Cl | > 141 | 3200 | 0.3 | > 257 | – | inactive | Active | 8500 | inactive | inactive | inactive | Activity (Mus musculus [9]): 31%; Activity (Mus musculus [10]): Toxic; Activity (Mus musculus [11]): Toxic; Activity (Mus musculus [12]): 23%
Cl.N=c1ccn2c(n1)O[C@H]1[C@H](O)[C@@H](CO)O[C@H]12 [ANCITABINE HYDROCHLORIDE] | – | 410 | 0.06 | 25 | – | inactive | inactive | 700 | inactive | inactive | inactive | Activity (L1210 [2]): inactive; ILS at 1000 mg/kg (L1210 [3]): 89%; ILS at 500 mg/kg (L1210 [13]): 67%; Activity (L1210 [14]): inactive
CC(=O)O[C@H]1[C@@H]2Oc3nc(=N)ccn3[C@@H]2O[C@@H]1COC(=O)C12C=CC(C)(CC1)CC2.Cl | – | 400 | 0.2 | 20 | – | inactive | inactive | 1750 | inactive | inactive | inactive | –
CCCCCCCCC(=O)OC[C@H]1O[C@@H]2[C@@H](Oc3nc(=N)ccn32)[C@@H]1OC(=O)CCCCCCCC.Cl | 14 | 320 | 0.06 | – | inactive | inactive | – | 420 | inactive | inactive | inactive | Activity (Mus musculus [15]): 88%; Activity (Mus musculus [16]): Toxic
CC(=O)O[C@H]1[C@@H]2Oc3nc(=N)ccn3[C@@H]2O[C@@H]1COC(=O)C12CC3CC(CC(C3)C1)C2.Cl | – | 640 | 0.2 | – | – | inactive | – | 2100 | inactive | inactive | inactive | Activity (Mus musculus [15]): 100%; Activity (Mus musculus [16]): Toxic
CCCCCCCCCCCCCCCCCCCCCC(=O)OC[C@H]1O[C@@H]2[C@@H](Oc3nc(=N)ccn32)[C@@H]1OC(=O)CCCCCCCCCCCCCCCCCCCCC.Cl | 15 | > 30000 | > 10 | 55 | inactive | inactive | inactive | > 30000 | inactive | inactive | inactive | Activity (L1210 [2]): inactive; ILS at 1000 mg/kg (L1210 [3]): 139%
CCCCCCCCCC(=O)OC[C@H]1O[C@@H]2[C@@H](Oc3nc(=N)ccn32)[C@@H]1OC(=O)CCCCCCCCC.Cl | 14 | 320 | 0.2 | – | inactive | inactive | – | 1100 | inactive | inactive | inactive | Activity (Mus musculus [9]): 72%; Activity (Mus musculus [15]): 69%; Activity (Mus musculus [11]): Toxic; Activity (Mus musculus [16]): Toxic
CCCCCCCC/C=C/CCCCCCCC(=O)OC[C@H]1O[C@@H]2[C@@H](Oc3nc(=N)ccn32)[C@@H]1OC(=O)CCCCCCC/C=C/CCCCCCCC.Cl | 114 | 4700 | 1.4 | > 258 | inactive | inactive | – | 9300 | inactive | inactive | inactive | Activity (L1210 [2]): inactive; ILS at 1000 mg/kg (L1210 [3]): 11%; ILS at 500 mg/kg (L1210 [13]): > 257%; Activity (L1210 [14]): Active
CCCCCCCCCCC(=O)OC[C@H]1O[C@@H]2[C@@H](Oc3nc(=N)ccn32)[C@@H]1OC(=O)CCCCCCCCCC.Cl | 88 | 410 | 0.32 | > 179 | inactive | inactive | – | 660 | inactive | inactive | inactive | ILS at 500 mg/kg (L1210 [13]): > 20%
CCCC(=O)OC[C@H]1O[C@@H]2[C@@H](Oc3nc(=N)ccn32)[C@@H]1OC(=O)CCC.Cl | – | 1550 | 0.11 | 58 | – | inactive | inactive | 4900 | inactive | inactive | inactive | Activity (Mus musculus [9]): 100%; Activity (Mus musculus [11]): Toxic; ILS at 500 mg/kg (L1210 [13]): 85%; Activity (L1210 [14]): inactive
CC(=O)O[C@H]1[C@@H]2Oc3nc(=N)ccn3[C@@H]2O[C@@H]1COC(=O)C(C)(C)C.Cl | – | 770 | 0.2 | 18 | – | inactive | inactive | 3200 | inactive | inactive | inactive | –
CCCCCCCCCCCCCCCCCC(=O)OC[C@H]1O[C@@H]2[C@@H](Oc3nc(=N)ccn32)[C@@H]1OC(=O)CCCCCCCCCCCCCCCCC.Cl | 68 | > 30000 | 3.8 | 125 | inactive | inactive | inactive | > 30000 | inactive | inactive | inactive | Activity (L1210 [2]): Active; ILS at 1000 mg/kg (L1210 [3]): > 255%
CCCCCCCC(=O)OC[C@H]1O[C@@H]2[C@@H](Oc3nc(=N)ccn32)[C@@H]1OC(=O)CCCCCCC.Cl | – | 560 | 0.1 | 28 | – | inactive | inactive | 1350 | inactive | inactive | inactive | –
CC(=O)OC[C@H]1O[C@@H]2[C@@H](Oc3nc(=N)ccn32)[C@@H]1OC(C)=O.Cl | – | 690 | 0.2 | 7 | – | inactive | inactive | 2400 | inactive | inactive | inactive | –
